According to US8309584B2, “Sulfur containing pyrazole-heterocycle derivatives as cannabinoid CB1 receptor antagonists” (Green Cross Corporation, priority 2008, dated 2012):
pIC50: −log10 of the molar value.

target: T1, rat CB-1 receptor (Rattus norvegicus, UniProt P20272); assay: rat cannabinoid-1 receptor (CB1R) binding affinity assay; conditions: not given
T1 construct: The tissue obtained from the brain of SD rats was homogenized; from tissue; host or cells: SD rat brain membrane homogenate
Procedure: The tissue obtained from the brain of SD rats was homogenized with a Dounce homogenate system in TME(50 mM Tris, 3 mM MgCl2 and 1 mM EDTA, pH 7.4) at 4° C., and the homogenate was centrifuged at 48,000 g for 30 min. at 4° C. The pellet was resuspended in 5 ml of TME and the suspension was divided into aliquots and stored at −70° C. until its use in the following assay.
The tissue concentrations were determined by Bradford protein analysis, and 148 μl of brain tissue of the required concentration was added to the plate. The plate was covered and placed in a 30° C. incubator for 60 min, and then transformed on GF/B filtermat pretreated in polyethylenimine (PEI) using a cell harvester. Each filter was washed five times and dried at 60° C. for 1 hr. Then, the degree of radioactivity retained by the filter was measured using Wallac Microbeta™ (PerkinElmer Life Sciences, Inc., Massachusetts, U.S.A.) and the activity of the compound for inhibiting CB1 receptor was determined therefrom.

T1 sequence (P20272 whole entry): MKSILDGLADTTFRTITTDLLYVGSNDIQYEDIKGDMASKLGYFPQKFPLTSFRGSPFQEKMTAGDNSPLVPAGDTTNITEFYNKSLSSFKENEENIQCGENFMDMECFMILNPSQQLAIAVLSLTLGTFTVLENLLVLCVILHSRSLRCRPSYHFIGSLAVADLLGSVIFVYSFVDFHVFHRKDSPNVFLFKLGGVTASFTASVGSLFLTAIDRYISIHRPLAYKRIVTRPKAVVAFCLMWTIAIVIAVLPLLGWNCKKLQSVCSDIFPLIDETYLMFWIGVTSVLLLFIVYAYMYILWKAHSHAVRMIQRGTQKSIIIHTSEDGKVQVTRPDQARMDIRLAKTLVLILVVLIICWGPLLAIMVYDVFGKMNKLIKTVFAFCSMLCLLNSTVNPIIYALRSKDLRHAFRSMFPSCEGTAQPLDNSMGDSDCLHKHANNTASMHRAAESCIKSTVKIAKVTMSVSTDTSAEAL

| Structure (SMILES) | pIC50 |
| --- | --- |
| CS(=O)(=O)c1c(-c2nnc(C3(C(F)(F)F)CCC3)o2)nn(-c2ccc(Cl)cc2Cl)c1-c1ccc(Cl)cc1 [Example 82, 2-(5-(4-chlorophenyl)-1-(2,4-dichlorophenyl)-4-(methylsulfonyl)-1H-pyrazol-3-yl)-5-(1-(trifluoromethyl)cyclobutyl)-1,3,4-oxadiazole] | 8.17 |

same assay, conditions: [3H]CP-55940 radioligand, SD rat brain tissue homogenate, 30° C., 60 min; read-out: IC50

| Structure (SMILES) | pIC50 |
| --- | --- |
| C[S+]([O-])c1c(-c2nnc(C3(c4ccc(Cl)cc4)CC3)s2)nn(-c2ccc(Cl)cc2Cl)c1-c1ccc(Cl)cc1 (stereo not shown) [Example 63, 2-(5-(4-chlorophenyl)-1-(2,4-dichlorophenyl)-4-(methylsulfinyl)-1H-pyrazol-3-yl)-5-(1-(4-chlorophenyl)cyclopropyl)-1,3,4-thiadiazole] | 7.93 |
| C[S+]([O-])c1c(-c2nnc(C3(C(F)(F)F)CCC3)s2)nn(-c2ccccc2Cl)c1-c1ccc(Cl)cc1 (stereo not shown) [Example 66, 2-(1-(2-chlorophenyl)-5-(4-chlorophenyl)-4-(methylsulfinyl)-1H-pyrazol-3-yl)-5-(1-(trifluoromethyl)cyclobutyl)-1,3,4-thiadiazole] | 8.47 |
| C[S+]([O-])c1c(-c2nnc(C(C)(C)C)s2)nn(-c2ccccc2Cl)c1-c1ccc(Br)cc1 (stereo not shown) [Example 72, 2-(5-(4-bromophenyl)-1-(2-chlorophenyl)-4-(methylsulfinyl)-1H-pyrazol-3-yl)-5-tert-butyl-1,3,4-thiadiazole] | 8.10 |
| C[S+]([O-])c1c(-c2nnc(C3(C(F)(F)F)CC3)s2)nn(-c2ccccc2Cl)c1-c1ccc(Br)cc1 (stereo not shown) [Example 73, 2-(5-(4-bromophenyl)-1-(2-chlorophenyl)-4-(methylsulfinyl)-1H-pyrazol-3-yl)-5-(1-(trifluoromethyl)cyclopropyl)-1,3,4-thiadiazole] | 8.22 |
| C[S+]([O-])c1c(-c2nnc(C3(C(F)(F)F)CCC3)s2)nn(-c2ccccc2Cl)c1-c1ccc(Br)cc1 (stereo not shown) [Example 74, 2-(5-(4-bromophenyl)-1-(2-chlorophenyl)-4-(methylsulfinyl)-1H-pyrazol-3-yl)-5-(1-(trifluoromethyl)cyclobutyl)-1,3,4-thiadiazole] | 8.63 |
| CS(=O)(=O)c1c(-c2nnc(C3(C(F)(F)F)CCC3)o2)nn(-c2ccccc2Cl)c1-c1ccc(Br)cc1 [Example 94, 2-(5-(4-bromophenyl)-1-(2-chlorophenyl)-4-(methylsulfonyl)-1H-pyrazol-3-yl)-5-(1-(trifluoromethyl)cyclobutyl)-1,3,4-oxadiazole] | 8.28 |
| CS(=O)(=O)c1c(-c2nnc(C3(C(F)(F)F)CCC3)s2)nn(-c2ccccc2Cl)c1-c1ccc(Cl)cc1 [Example 106, 2-(1-(2-chlorophenyl)-5-(4-chlorophenyl)-4-(methylsulfonyl)-1H-pyrazol-3-yl)-5-(1-(trifluoromethyl)cyclobutyl)-1,3,4-thiadiazole] | 9.06 |
| CS(=O)(=O)c1c(-c2nnc(C3(C(F)(F)F)CCC3)s2)nn(-c2ccc(Cl)cc2Cl)c1-c1ccc(Br)cc1 [Example 110, 2-(5-(4-bromophenyl)-1-(2,4-dichlorophenyl)-4-(methylsulfonyl)-1H-pyrazol-3-yl)-5-(1-(trifluoromethyl)cyclobutyl)-1,3,4-thiadiazole] | 8.44 |
| CC(C)(C)c1nnc(-c2nn(-c3ccccc3Cl)c(-c3ccc(Br)cc3)c2S(C)(=O)=O)s1 [Example 112, 2-(5-(4-bromophenyl)-1-(2-chlorophenyl)-4-(methylsulfonyl)-1H-pyrazol-3-yl)-5-tert-butyl-1,3,4-thiadiazole] | 8.52 |
| CS(=O)(=O)c1c(-c2nnc(C3(C(F)(F)F)CC3)s2)nn(-c2ccccc2Cl)c1-c1ccc(Br)cc1 [Example 113, 2-(5-(4-bromophenyl)-1-(2-chlorophenyl)-4-(methylsulfonyl)-1H-pyrazol-3-yl)-5-(1-(trifluoromethyl)cyclopropyl)-1,3,4-thiadiazole] | 8.60 |
| CS(=O)(=O)c1c(-c2nnc(C3(C(F)(F)F)CCC3)s2)nn(-c2ccccc2Cl)c1-c1ccc(Br)cc1 [Example 114, 2-(5-(4-bromophenyl)-1-(2-chlorophenyl)-4-(methylsulfonyl)-1H-pyrazol-3-yl)-5-(1-(trifluoromethyl)cyclobutyl)-1,3,4-thiadiazole] | 8.97 |
| CS(=O)(=O)c1c(-c2nnc(C3(c4ccc(Cl)cc4)CC3)s2)nn(-c2ccccc2Cl)c1-c1ccc(Br)cc1 [Example 115, 2-(5-(4-bromophenyl)-1-(2-chlorophenyl)-4-(methylsulfonyl)-1H-pyrazol-3-yl)-5-(1-(4-chlorophenyl)cyclopropyl)-1,3,4-thiadiazole] | 8.85 |
| CCS(=O)(=O)c1c(-c2nnc(C3(c4ccc(Cl)cc4)CC3)s2)nn(-c2ccc(Cl)cc2Cl)c1-c1ccc(Cl)cc1 [Example 119, 2-(5-(4-chlorophenyl)-1-(2,4-dichlorophenyl)-4-(ethylsulfonyl)-1H-pyrazol-3-yl)-5-(1-(4-chlorophenyl)cyclopropyl)-1,3,4-thiadiazole] | 8.69 |

Second part, the compound after the results:

| pIC50 | Structure (SMILES) |
| --- | --- |
| 7.82 | CC(C)(C)c1nnc(-c2nn(-c3ccc(Cl)cc3Cl)c(-c3ccc(Cl)cc3)c2S(C)(=O)=O)o1 [Example 80, 2-tert-butyl-5-(5-(4-chlorophenyl)-1-(2,4-dichlorophenyl)-4-(methylsulfonyl)-1H-pyrazol-3-yl)-1,3,4-oxadiazole] |
| 8.20 | CS(=O)(=O)c1c(-c2nnc(C3(C(F)(F)F)CC3)o2)nn(-c2ccc(Cl)cc2Cl)c1-c1ccc(Cl)cc1 [Example 81, 2-(5-(4-chlorophenyl)-1-(2,4-dichlorophenyl)-4-(methylsulfonyl)-1H-pyrazol-3-yl)-5-(1-(trifluoromethyl)cyclopropyl)-1,3,4-oxadiazole] |
| 7.66 | CS(=O)(=O)c1c(-c2nnc(C3(c4ccc(Cl)cc4)CC3)o2)nn(-c2ccc(Cl)cc2Cl)c1-c1ccc(Cl)cc1 [Example 83, 2-(5-(4-chlorophenyl)-1-(2,4-dichlorophenyl)-4-(methylsulfonyl)-1H-pyrazol-3-yl)-5-(1-(4-chlorophenyl)cyclopropyl)-1,3,4-oxadiazole] |
| 7.85 | CC(C)(C)c1nnc(-c2nn(-c3ccc(Cl)cc3Cl)c(-c3ccc(Br)cc3)c2S(C)(=O)=O)o1 [Example 88, 2-(5-(4-bromophenyl)-1-(2,4-dichlorophenyl)-4-(methylsulfonyl)-1H-pyrazol-3-yl)-5-tert-butyl-1,3,4-oxadiazole] |
| 8.13 | CS(=O)(=O)c1c(-c2nnc(C3(C(F)(F)F)CCC3)o2)nn(-c2ccc(Cl)cc2Cl)c1-c1ccc(Br)cc1 [Example 90, 2-(5-(4-bromophenyl)-1-(2,4-dichlorophenyl)-4-(methylsulfonyl)-1H-pyrazol-3-yl)-5-(1-(trifluoromethyl)cyclobutyl)-1,3,4-oxadiazole] |
| 8.09 | CC(C)(C)c1nnc(-c2nn(-c3ccccc3Cl)c(-c3ccc(Br)cc3)c2S(C)(=O)=O)o1 [Example 92, 2-(5-(4-bromophenyl)-1-(2-chlorophenyl)-4-(methylsulfonyl)-1H-pyrazol-3-yl)-5-tert-butyl-1,3,4-oxadiazole] |
| 8.23 | CC(C)(C)c1nnc(-c2nn(-c3ccc(Cl)cc3Cl)c(-c3ccc(Cl)cc3)c2S(C)(=O)=O)s1 [Example 100, 2-tert-butyl-5-(5-(4-chlorophenyl)-1-(2,4-dichlorophenyl)-4-(methylsulfonyl)-1H-pyrazol-3-yl)-1,3,4-thiadiazole] |
| 7.66 | CS(=O)(=O)c1c(-c2nnc(C3(C(F)(F)F)CC3)s2)nn(-c2ccc(Cl)cc2Cl)c1-c1ccc(Cl)cc1 [Example 101, 2-(5-(4-chlorophenyl)-1-(2,4-dichlorophenyl)-4-(methylsulfonyl)-1H-pyrazol-3-yl)-5-(1-(trifluoromethyl)cyclopropyl)-1,3,4-thiadiazole] |
| 8.43 | CS(=O)(=O)c1c(-c2nnc(C3(C(F)(F)F)CCC3)s2)nn(-c2ccc(Cl)cc2Cl)c1-c1ccc(Cl)cc1 [Example 102, 2-(5-(4-chlorophenyl)-1-(2,4-dichlorophenyl)-4-(methylsulfonyl)-1H-pyrazol-3-yl)-5-(1-(trifluoromethyl)cyclobutyl)-1,3,4-thiadiazole] |
| 8.36 | CS(=O)(=O)c1c(-c2nnc(C3(c4ccc(Cl)cc4)CC3)s2)nn(-c2ccc(Cl)cc2Cl)c1-c1ccc(Cl)cc1 [Example 103, 2-(5-(4-chlorophenyl)-1-(2,4-dichlorophenyl)-4-(methylsulfonyl)-1H-pyrazol-3-yl)-5-(1-(4-chlorophenyl)cyclopropyl)-1,3,4-thiadiazole] |
| 8.14 | CC(C)(C)c1nnc(-c2nn(-c3ccccc3Cl)c(-c3ccc(Cl)cc3)c2S(C)(=O)=O)s1 [Example 104, 2-tert-butyl-5-(1-(2-chlorophenyl)-5-(4-chlorophenyl)-4-(methylsulfonyl)-1H-pyrazol-3-yl)-1,3,4-thiadiazole] |
